Patent publication EP2931723B1, “NEW BICYCLIC COMPOUNDS AND THEIR USE AS ANTIBACTERIAL AGENTS AND -LACTAMASE INHIBITORS” (Fedora Pharmaceuticals Inc., priority 2012, dated 2014)

Tests used:
Assay in all cases: MIC, antibacterial and synergistic activity
Assay type in all cases: cell-based
E. coli JMI 10767 [1] = conditions: E. coli JMI 10767 (Wt)
Experimental: (§1) In the Tables 10 - 12, compounds herein disclosed were tested in combination with various antibiotics against metallo β-lactamase producing bacteria. Table 3: Synergy of the inhibitor Ex. 1 (4 µg/mL) in combination with antibiotics

E. coli JMI 10768 [2] = conditions: E. coli JMI 10768 (CTX-M15 (Weak ESBL))
Experimental: as §1

E. coli JMI 10770 [3] = conditions: E. coli JMI 10770 (CTX-M15 (Hyper ESBL))
Experimental: as §1

E. coli JMI 2665 = system: E. coli JMI 2665
Experimental: as §1

E. coli JMI 2671 = system: E. coli JMI 2671
Experimental: as §1

K. pneumo JMI 2673 [4] = conditions: K. pneumo JMI 2673 (CTX-M14 (ESBL))
Experimental: as §1

K. pneumo JMI 2674 [5] = conditions: K. pneumo JMI 2674 (CTX-M15 (ESBL))
Experimental: as §1

K. pneumo JMI 2699 = K. pneumo JMI 2699 (VIM-1, CTX-M3)
Experimental: as §1

K. pneumo JMI 4088 [6] = conditions: K. pneumo JMI 4088 (KPC-3 (Cpase))
Experimental: as §1

K.pneumo JMI 4109 [7] = conditions: K.pneumo JMI 4109 (SHV-1, SHV-12)
Experimental: as §1

P. aerug JMI 2686 [8] = conditions: P. aerug JMI 2686 (KPC-2 (Cpase))
Experimental: as §1

K. pneumo JMI 4106 = K. pneumo JMI 4106 (KPC-3, TEM-1, SHV-12, SHV-141)
K. pneumo JMI 2697 = K. pneumo JMI 2697 (IMP-4 (Cpase))
Experimental: In the Tables 10 - 12, compounds herein disclosed were tested in combination with various antibiotics against metallo β-lactamase producing bacteria.

K. pneumo JMI 2681 = K. pneumo JMI 2681 (Oxa-48 (Cpase))
K.pneumo JMI 4109 [9] = conditions: K.pneumo JMI 4109 (SHV-1, SHV-12); substance alone
K. pneumo JMI 2673 [10] = conditions: K. pneumo JMI 2673 (CTX-M14 (ESBL)); substance alone
K. pneumo JMI 2674 [11] = conditions: K. pneumo JMI 2674 (CTX-M15 (ESBL)); substance alone
K. pneumo JMI 4088 [12] = conditions: K. pneumo JMI 4088 (KPC-3 (Cpase)); substance alone
P. aerug JMI 2686 [13] = conditions: P. aerug JMI 2686 (KPC-2 (Cpase)); substance alone
E. coli JMI 10767 [14] = conditions: E. coli JMI 10767 (Wt); remark: listed apart in the source
E. coli JMI 10768 [15] = conditions: E. coli JMI 10768 (CTX-M15 (Weak ESBL)); Meropenem + inhibitor at 4 µg/mL
E. coli JMI 10770 [16] = conditions: Escherichia coli, JMI10770; E. coli JMI 10770 (CTX-M15 (Hyper ESBL)); substance alone
E. coli JMI 11103 = system: E. coli JMI 11103
[17] = Aztreonam + inhibitor at 4 µg/mL
[18] = Ceftazidime + inhibitor at 4 µg/mL
[19] = Meropenem + inhibitor at 4 µg/mL

CC(=O)NNC(=O)[C@@H]1CC[C@@H]2CN1C(=O)N2OS(=O)(=O)O [Ex. 5, (2S,5R)-N'-acetyl-7-oxo-6-(sulfooxy)-1,6-diazabicyclo[3.2.1]octane-2-carbohydrazide]
>16 µg/mL: MIC Ceftazidime + inhibitor (P. aerug JMI 2686 [8]; [18])
≤0.031 µg/mL: MIC Meropenem + inhibitor (E. coli JMI 10770 [3]; [19]) | MIC Meropenem + inhibitor (E. coli JMI 2665; E. coli JMI 2665 (CMY-2 (Plasmid Cpase)), Meropenem + inhibitor at 4 µg/mL) | MIC Meropenem + inhibitor (K. pneumo JMI 2673 [4]; [19]) | MIC Meropenem + inhibitor (K. pneumo JMI 2699; [19]) | MIC Meropenem + inhibitor (K.pneumo JMI 4109 [7]; [19]) | MIC Meropenem + inhibitor (E. coli JMI 10767 [14]; [19]) | MIC Meropenem + inhibitor (E. coli JMI 10768 [15]) | MIC Meropenem + inhibitor (E. coli JMI 11103; E. coli JMI 11103 (CTX-M15 (Intermediate ESBL)), Meropenem + inhibitor at 4 µg/mL)
>2 µg/mL: MIC Meropenem + inhibitor (P. aerug JMI 2686 [8]; [19]) | MIC Ceftazidime + inhibitor (K. pneumo JMI 2697; [18])
0.062 µg/mL: MIC Meropenem + inhibitor (K. pneumo JMI 2674 [5]; [19])
> 16 µg/mL: MIC (K. pneumo JMI 2699; substance alone, read-out: MIC) | MIC (K. pneumo JMI 4106; substance alone, read-out: MIC) | MIC (K.pneumo JMI 4109 [9]) | MIC (K. pneumo JMI 2673 [10]) | MIC (K. pneumo JMI 2674 [11]) | MIC (K. pneumo JMI 4088 [12])
0.25 µg/mL: MIC Meropenem + inhibitor (E. coli JMI 2671; E. coli JMI 2671 (VIM-19 (Cpase)), Meropenem + inhibitor at 4 µg/mL) | MIC Aztreonam + inhibitor (K. pneumo JMI 4088 [6]; [17])
>4 µg/mL: MIC Aztreonam + inhibitor (P. aerug JMI 2686 [8]; [17])
≤0.25 µg/mL: MIC Ceftazidime + inhibitor (E. coli JMI 10767 [1]; [18]) | MIC Ceftazidime + inhibitor (E. coli JMI 10768 [2]; [18]) | MIC Ceftazidime + inhibitor (E. coli JMI 10770 [3]; [18]) | MIC Ceftazidime + inhibitor (E. coli JMI 2665; E. coli JMI 2665 (CMY-2 (Plasmid Cpase)), Ceftazidime + inhibitor at 4 µg/mL) | MIC Ceftazidime + inhibitor (K. pneumo JMI 2673 [4]; [18]) | MIC Ceftazidime + inhibitor (K. pneumo JMI 2674 [5]; [18]) | MIC Ceftazidime + inhibitor (K. pneumo JMI 4088 [6]; [18]) | MIC Ceftazidime + inhibitor (K.pneumo JMI 4109 [7]; [18]) | MIC Ceftazidime + inhibitor (K. pneumo JMI 2681; [18]) | MIC Ceftazidime + inhibitor (E. coli JMI 11103; E. coli JMI 11103 (CTX-M15 (Intermediate ESBL)), Ceftazidime + inhibitor at 4 µg/mL)
8 µg/mL: MIC (E. coli JMI 10768 [2]; Escherichia coli, JMI10768, substance alone) | MIC (E. coli JMI 10767 [14]; Escherichia coli, JMI10767, substance alone) | MIC (E. coli JMI 10770 [16]) | MIC (E. coli JMI 11103; Escherichia coli, JMI11103, E. coli JMI 11103 (CTX-M15 (Intermediate ESBL)), substance alone)
0.125 µg/mL: MIC Aztreonam + inhibitor (K. pneumo JMI 2674 [5]; [17]) | MIC Meropenem + inhibitor (K. pneumo JMI 4088 [6]; [19]) | MIC Meropenem + inhibitor (K. pneumo JMI 2697; [19])
≤0.062 µg/mL: MIC Aztreonam + inhibitor (E. coli JMI 10767 [1]; [17]) | MIC Aztreonam + inhibitor (E. coli JMI 10768 [2]; [17]) | MIC Aztreonam + inhibitor (E. coli JMI 10770 [3]; [17]) | MIC Aztreonam + inhibitor (E. coli JMI 2665; E. coli JMI 2665 (CMY-2 (Plasmid Cpase)), Aztreonam + inhibitor at 4 µg/mL) | MIC Aztreonam + inhibitor (E. coli JMI 2671; E. coli JMI 2671 (VIM-19 (Cpase)), Aztreonam + inhibitor at 4 µg/mL) | MIC Aztreonam + inhibitor (K. pneumo JMI 2673 [4]; [17]) | MIC Aztreonam + inhibitor (K. pneumo JMI 2699; [17]) | MIC Aztreonam + inhibitor (K.pneumo JMI 4109 [7]; [17]) | MIC Aztreonam + inhibitor (K. pneumo JMI 2697; [17]) | MIC Aztreonam + inhibitor (E. coli JMI 11103; E. coli JMI 11103 (CTX-M15 (Intermediate ESBL)), Aztreonam + inhibitor at 4 µg/mL)
16 µg/mL: MIC (E. coli JMI 2671; Escherichia coli, JMI2671, E. coli JMI 2671 (VIM-19 (Cpase)), substance alone) | MIC (K. pneumo JMI 2697; substance alone) | MIC (K. pneumo JMI 2681; substance alone, read-out: MIC) | MIC (P. aerug JMI 2686 [13])
0.5 µg/mL: MIC Ceftazidime + inhibitor (K. pneumo JMI 4106; [18]) | MIC Aztreonam + inhibitor (K. pneumo JMI 2681; [17])
1 µg/mL: MIC Aztreonam + inhibitor (K. pneumo JMI 4106; [17])
2 µg/mL: MIC (E. coli JMI 2665; Escherichia coli, JMI2665) | MIC Ceftazidime + inhibitor (E. coli JMI 2671; E. coli JMI 2671 (VIM-19 (Cpase)), Ceftazidime + inhibitor at 4 µg/mL) | MIC Ceftazidime + inhibitor (K. pneumo JMI 2699; [18]) | MIC Meropenem + inhibitor (K. pneumo JMI 4106; [19]) | MIC Meropenem + inhibitor (K. pneumo JMI 2681; [19])
